Results from patent US10231954B2, “Neurodegenerative therapies” (LYTIX BIOPHARMA AS, priority 2014, dated 2019).
Like-named read-outs stand apart in the source and are kept apart here.

Tests used:
[1] = target: T1, TBK1 (Homo sapiens, UniProt Q9UHD2); test: Kinase profiling TBK1; assay type: biochemical; settings: for remaining activity at 100 µM: read-out: residual kinase activity, TBK1
T1 sequence (Q9UHD2 1-729): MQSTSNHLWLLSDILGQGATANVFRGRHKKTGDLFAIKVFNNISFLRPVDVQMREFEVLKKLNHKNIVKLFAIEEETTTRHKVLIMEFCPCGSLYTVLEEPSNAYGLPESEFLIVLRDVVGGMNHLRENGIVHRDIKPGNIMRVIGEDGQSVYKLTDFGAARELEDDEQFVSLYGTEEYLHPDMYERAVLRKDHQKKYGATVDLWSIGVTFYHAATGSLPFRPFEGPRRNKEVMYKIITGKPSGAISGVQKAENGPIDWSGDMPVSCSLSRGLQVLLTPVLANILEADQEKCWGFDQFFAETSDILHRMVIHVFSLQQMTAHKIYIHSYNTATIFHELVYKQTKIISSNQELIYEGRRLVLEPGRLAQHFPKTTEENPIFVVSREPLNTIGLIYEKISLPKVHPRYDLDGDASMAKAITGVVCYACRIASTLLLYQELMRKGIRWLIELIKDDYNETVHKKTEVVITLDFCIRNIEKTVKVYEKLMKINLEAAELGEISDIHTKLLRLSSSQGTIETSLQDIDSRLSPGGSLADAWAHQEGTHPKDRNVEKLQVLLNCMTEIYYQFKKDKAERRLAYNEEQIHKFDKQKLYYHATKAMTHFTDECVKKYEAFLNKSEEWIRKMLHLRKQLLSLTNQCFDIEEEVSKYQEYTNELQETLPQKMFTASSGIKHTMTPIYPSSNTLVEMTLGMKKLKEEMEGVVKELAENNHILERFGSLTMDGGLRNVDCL
Excerpt: (§1) Any value less that 25 is considered to be highly significant inhibition.

[2] = target: T2, PDK1 (Homo sapiens, UniProt O15530); test: Kinase profiling PDK1; assay type: biochemical; settings: for remaining activity at 100 µM: read-out: residual kinase activity, PDK1
T2 sequence (O15530 1-556): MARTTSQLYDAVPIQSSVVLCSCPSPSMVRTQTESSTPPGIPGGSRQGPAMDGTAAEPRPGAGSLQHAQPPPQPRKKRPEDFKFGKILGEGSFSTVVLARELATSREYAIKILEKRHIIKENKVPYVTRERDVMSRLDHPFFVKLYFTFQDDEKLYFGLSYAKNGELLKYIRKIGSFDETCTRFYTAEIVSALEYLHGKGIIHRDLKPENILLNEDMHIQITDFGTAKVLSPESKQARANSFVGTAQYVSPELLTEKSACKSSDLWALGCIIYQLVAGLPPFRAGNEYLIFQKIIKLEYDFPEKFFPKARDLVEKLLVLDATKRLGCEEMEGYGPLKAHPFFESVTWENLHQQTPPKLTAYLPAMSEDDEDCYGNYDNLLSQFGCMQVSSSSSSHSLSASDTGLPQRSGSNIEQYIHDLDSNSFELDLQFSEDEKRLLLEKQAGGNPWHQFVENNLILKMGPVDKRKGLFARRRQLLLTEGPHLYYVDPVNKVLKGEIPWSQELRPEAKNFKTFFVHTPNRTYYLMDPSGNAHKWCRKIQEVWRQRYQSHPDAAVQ
Excerpt: as §1

[3] = target: Src (Homo sapiens, UniProt P12931); test: Kinase profiling Src; assay type: biochemical; settings: for remaining activity at 100 µM: read-out: residual kinase activity, Src
Sequence of Src (P12931 whole entry, species assumed): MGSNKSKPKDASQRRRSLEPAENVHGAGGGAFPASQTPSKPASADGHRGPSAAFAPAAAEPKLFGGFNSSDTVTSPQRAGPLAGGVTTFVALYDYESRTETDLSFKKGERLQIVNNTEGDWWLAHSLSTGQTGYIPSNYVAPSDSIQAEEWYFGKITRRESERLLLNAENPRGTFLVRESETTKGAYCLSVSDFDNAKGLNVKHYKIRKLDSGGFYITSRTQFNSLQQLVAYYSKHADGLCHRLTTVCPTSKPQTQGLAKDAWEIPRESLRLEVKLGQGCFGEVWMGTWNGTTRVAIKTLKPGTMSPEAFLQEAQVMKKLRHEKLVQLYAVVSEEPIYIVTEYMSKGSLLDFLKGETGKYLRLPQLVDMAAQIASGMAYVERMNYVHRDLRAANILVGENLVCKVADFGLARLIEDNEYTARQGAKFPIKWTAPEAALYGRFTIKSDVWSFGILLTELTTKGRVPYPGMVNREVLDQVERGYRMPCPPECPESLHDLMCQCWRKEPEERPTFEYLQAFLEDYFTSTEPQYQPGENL
Excerpt: as §1

[4] = target: HER4 (Homo sapiens, UniProt Q15303); test: Kinase profiling HER4; assay type: biochemical; settings: for remaining activity at 100 µM: read-out: residual kinase activity, HER4
Sequence of HER4 (Q15303 26-1308, species assumed): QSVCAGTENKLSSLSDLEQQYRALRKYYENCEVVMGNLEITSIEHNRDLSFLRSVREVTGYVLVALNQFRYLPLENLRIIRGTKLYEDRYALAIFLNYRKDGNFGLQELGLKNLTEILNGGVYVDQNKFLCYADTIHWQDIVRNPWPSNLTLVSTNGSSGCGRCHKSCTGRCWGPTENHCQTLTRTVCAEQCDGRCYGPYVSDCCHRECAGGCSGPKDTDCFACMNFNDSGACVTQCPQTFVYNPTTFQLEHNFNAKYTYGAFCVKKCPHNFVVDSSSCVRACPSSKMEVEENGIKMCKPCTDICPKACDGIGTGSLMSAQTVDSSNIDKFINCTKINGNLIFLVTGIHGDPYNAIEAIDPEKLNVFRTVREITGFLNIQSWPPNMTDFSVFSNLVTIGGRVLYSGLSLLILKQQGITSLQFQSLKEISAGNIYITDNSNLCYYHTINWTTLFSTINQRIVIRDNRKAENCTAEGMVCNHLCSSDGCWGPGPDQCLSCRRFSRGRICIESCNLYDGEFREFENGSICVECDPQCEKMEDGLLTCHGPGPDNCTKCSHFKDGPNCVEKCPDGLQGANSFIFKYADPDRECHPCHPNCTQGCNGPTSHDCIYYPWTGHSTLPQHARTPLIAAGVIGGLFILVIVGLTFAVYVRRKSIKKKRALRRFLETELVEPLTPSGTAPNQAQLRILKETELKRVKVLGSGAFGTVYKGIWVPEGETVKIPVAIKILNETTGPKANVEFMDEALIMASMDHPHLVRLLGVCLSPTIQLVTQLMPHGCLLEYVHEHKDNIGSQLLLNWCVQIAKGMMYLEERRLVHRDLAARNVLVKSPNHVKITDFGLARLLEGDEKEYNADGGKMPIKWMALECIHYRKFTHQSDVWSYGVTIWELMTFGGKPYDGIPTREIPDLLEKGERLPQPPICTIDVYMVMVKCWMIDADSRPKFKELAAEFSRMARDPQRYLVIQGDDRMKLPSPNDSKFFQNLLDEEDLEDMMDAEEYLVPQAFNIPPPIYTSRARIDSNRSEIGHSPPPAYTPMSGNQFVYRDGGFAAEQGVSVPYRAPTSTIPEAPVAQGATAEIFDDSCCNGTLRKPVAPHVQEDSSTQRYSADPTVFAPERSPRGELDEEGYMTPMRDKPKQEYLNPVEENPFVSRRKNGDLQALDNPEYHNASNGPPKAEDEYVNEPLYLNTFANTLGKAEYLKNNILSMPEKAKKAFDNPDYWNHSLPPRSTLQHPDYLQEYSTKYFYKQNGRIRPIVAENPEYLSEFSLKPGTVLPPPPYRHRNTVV
Excerpt: as §1

[5] = target: MSK1 (Homo sapiens, UniProt O75582); test: Kinase profiling MSK1; assay type: biochemical; settings: for remaining activity at 100 µM: read-out: residual kinase activity, MSK1
Sequence of MSK1 (O75582 whole entry, species assumed): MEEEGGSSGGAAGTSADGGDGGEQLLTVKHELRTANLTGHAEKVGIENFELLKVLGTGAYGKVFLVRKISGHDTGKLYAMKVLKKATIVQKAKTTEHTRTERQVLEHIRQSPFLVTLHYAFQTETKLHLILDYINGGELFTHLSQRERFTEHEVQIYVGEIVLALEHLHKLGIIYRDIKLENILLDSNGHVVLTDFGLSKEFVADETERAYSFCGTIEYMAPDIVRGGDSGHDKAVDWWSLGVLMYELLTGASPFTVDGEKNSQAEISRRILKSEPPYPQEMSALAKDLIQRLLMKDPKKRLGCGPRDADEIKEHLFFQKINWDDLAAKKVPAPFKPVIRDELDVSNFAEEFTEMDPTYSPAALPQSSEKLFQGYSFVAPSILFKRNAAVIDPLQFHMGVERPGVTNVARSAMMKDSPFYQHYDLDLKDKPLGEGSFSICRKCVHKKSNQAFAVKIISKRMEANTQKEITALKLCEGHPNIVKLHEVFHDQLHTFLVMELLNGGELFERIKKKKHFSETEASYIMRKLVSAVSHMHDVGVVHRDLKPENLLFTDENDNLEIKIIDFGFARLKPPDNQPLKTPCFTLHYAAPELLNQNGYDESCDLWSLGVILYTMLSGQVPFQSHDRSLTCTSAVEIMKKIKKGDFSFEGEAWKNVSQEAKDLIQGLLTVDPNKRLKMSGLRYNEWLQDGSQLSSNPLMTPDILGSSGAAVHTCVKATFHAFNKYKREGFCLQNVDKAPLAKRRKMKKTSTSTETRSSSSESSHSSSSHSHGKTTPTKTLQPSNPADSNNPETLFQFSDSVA
Excerpt: as §1

[6] = target: Lck (Homo sapiens, UniProt P06239); test: Kinase profiling Lck; assay type: biochemical; settings: for remaining activity at 100 µM: read-out: residual kinase activity, Lck
Sequence of Lck (P06239 whole entry, species assumed): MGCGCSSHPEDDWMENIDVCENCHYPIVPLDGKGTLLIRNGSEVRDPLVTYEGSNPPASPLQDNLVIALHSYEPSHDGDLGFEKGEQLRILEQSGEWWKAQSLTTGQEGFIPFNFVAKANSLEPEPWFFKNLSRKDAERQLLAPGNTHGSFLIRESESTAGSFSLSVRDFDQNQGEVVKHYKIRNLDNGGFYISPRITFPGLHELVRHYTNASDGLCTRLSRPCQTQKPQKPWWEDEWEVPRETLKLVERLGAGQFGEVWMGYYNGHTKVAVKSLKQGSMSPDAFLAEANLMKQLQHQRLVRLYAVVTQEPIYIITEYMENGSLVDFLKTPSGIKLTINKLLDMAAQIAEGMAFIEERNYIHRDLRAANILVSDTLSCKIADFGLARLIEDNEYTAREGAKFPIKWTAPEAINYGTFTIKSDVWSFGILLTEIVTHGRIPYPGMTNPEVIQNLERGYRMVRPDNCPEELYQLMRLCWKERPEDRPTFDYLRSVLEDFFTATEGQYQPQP
Excerpt: as §1

[7] = target: SYK (Homo sapiens, UniProt P43405); test: Kinase profiling SYK; assay type: biochemical; settings: for remaining activity at 100 µM: read-out: residual kinase activity, SYK
Excerpt: as §1

[8] = target: EF2K (Homo sapiens, UniProt O00418); test: Kinase profiling EF2K; assay type: biochemical; settings: for remaining activity at 100 µM: read-out: residual kinase activity, EF2K
Excerpt: as §1

[9] = target: T3, PKCz (Homo sapiens, UniProt Q05513); test: Kinase profiling PKCz; assay type: biochemical; settings: for remaining activity at 100 µM: read-out: residual kinase activity, PKCz
T3 sequence (Q05513 1-592): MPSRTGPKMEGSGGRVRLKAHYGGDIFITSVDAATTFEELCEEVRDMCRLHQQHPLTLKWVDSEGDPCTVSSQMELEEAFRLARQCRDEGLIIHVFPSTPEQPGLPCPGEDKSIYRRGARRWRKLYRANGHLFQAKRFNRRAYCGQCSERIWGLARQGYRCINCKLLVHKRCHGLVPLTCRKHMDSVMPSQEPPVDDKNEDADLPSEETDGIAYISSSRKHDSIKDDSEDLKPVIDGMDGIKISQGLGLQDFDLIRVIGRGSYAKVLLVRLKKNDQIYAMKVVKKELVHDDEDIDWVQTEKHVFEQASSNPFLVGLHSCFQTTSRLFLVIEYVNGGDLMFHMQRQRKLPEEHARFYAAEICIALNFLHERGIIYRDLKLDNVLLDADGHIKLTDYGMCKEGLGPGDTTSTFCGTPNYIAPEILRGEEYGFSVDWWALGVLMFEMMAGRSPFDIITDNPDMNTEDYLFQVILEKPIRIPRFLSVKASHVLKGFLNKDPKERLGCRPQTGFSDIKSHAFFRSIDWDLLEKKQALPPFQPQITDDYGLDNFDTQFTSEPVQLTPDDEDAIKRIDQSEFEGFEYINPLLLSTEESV
Excerpt: as §1

[10] = target: SRPK1 (Homo sapiens, UniProt Q96SB4); test: Kinase profiling SRPK1; assay type: biochemical; settings: for remaining activity at 100 µM: read-out: residual kinase activity, SRPK1
Sequence of SRPK1 (Q96SB4 whole entry, species assumed): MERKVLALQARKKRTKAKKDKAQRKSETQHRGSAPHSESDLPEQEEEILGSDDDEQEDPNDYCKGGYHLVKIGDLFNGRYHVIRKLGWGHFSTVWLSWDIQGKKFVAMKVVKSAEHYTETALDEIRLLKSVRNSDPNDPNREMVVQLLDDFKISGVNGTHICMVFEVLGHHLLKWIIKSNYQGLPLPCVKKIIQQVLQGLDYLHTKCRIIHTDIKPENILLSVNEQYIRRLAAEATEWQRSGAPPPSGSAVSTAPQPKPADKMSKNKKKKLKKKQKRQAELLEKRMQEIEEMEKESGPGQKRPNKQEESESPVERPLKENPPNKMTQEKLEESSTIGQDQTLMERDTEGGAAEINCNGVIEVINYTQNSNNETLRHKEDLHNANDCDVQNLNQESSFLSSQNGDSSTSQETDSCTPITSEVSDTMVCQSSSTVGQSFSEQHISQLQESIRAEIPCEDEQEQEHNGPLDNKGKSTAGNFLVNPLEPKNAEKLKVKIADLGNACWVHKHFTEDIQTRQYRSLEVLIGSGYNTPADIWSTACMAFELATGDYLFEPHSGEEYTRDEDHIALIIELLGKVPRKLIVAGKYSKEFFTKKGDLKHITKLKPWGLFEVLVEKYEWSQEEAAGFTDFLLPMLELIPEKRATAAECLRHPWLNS
Excerpt: as §1

[11] = target: T4, SGK1 (Homo sapiens, UniProt O00141); test: Kinase profiling SGK1; assay type: biochemical; settings: for remaining activity at 100 µM: read-out: residual kinase activity, SGK1
T4 sequence (O00141 1-431): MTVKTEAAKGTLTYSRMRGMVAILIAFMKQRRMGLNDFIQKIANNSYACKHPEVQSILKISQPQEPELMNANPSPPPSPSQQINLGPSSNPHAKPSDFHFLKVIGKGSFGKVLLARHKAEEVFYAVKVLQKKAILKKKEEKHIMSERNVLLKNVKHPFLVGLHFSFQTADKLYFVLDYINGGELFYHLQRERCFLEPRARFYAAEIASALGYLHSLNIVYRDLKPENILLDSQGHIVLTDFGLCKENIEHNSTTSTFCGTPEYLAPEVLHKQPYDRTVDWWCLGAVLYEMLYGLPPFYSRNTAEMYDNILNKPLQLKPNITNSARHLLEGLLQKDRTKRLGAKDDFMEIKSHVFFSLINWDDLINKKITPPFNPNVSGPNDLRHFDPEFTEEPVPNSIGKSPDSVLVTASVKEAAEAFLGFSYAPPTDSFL
Excerpt: as §1

[12] = target: MKK1 (Homo sapiens, UniProt Q02750); test: Kinase profiling MKK1; assay type: biochemical; settings: for remaining activity at 100 µM: read-out: residual kinase activity, MKK1
Sequence of MKK1 (Q02750 whole entry, species assumed): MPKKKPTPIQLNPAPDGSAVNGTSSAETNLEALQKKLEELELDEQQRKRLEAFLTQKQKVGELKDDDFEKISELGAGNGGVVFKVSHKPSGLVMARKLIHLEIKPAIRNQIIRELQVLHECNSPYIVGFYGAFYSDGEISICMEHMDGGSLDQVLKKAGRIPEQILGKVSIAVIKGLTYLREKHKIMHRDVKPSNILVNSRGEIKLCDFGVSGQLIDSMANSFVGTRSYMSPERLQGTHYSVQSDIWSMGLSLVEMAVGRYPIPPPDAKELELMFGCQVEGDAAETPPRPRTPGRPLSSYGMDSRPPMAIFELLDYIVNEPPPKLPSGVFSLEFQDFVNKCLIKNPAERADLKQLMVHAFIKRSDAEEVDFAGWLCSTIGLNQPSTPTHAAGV
Excerpt: as §1

[13] = test system: AMPK (hum); test: Kinase profiling AMPK (hum); assay type: biochemical, human; settings: 100 micromolar inhibitor concentration; 100 is no change
Excerpt: as §1

[14] = 100 micromolar inhibitor concentration, 100 is no change

Row | SMILES | residual kinase activity, AMPK (hum) [13] | residual kinase activity, TBK1 [1, 14] | residual kinase activity, PDK1 [2, 14] | residual kinase activity, Src [3, 14] | residual kinase activity, HER4 [4, 14] | residual kinase activity, MSK1 [5, 14] | residual kinase activity, Lck [6, 14] | residual kinase activity, SYK [7, 14] | residual kinase activity, EF2K [8, 14] | residual kinase activity, PKCz [9, 14] | residual kinase activity, SRPK1 [10, 14] | residual kinase activity, SGK1 [11, 14] | residual kinase activity, MKK1 [12, 14] | also measured
1 | CC(=O)Nc1nc2cc(O)ccc2s1 [Compound 01-66, N-(5-hydroxybenzo[d]thiazol-2-yl)acetamide] |  |  |  |  |  |  |  |  |  |  |  |  |  | remaining activity at 100 µM [1]: 60%; remaining activity at 100 µM [2]: 69%; remaining activity at 100 µM [3]: 45%; remaining activity at 100 µM [4]: 40%; remaining activity at 100 µM [5]: 62%; remaining activity at 100 µM [6]: 69%; remaining activity at 100 µM [7]: 82%; remaining activity at 100 µM [8]: 76%; remaining activity at 100 µM [9]: 98%; remaining activity at 100 µM [10]: 59%; remaining activity at 100 µM [11]: 77%; remaining activity at 100 µM [12]: 31%
2 | CC(=O)Nc1nc2cc(F)ccc2s1 [Compound 03-77] | 80 |  |  |  |  |  |  |  |  |  |  |  |  | remaining activity at 100 µM [1, 14]: 74%; remaining activity at 100 µM [2, 14]: 91%; remaining activity at 100 µM [3, 14]: 80%; remaining activity at 100 µM [4, 14]: 92%; remaining activity at 100 µM [5, 14]: 74%; remaining activity at 100 µM [6, 14]: 96%; remaining activity at 100 µM [7, 14]: 82%; remaining activity at 100 µM [8, 14]: 99%; remaining activity at 100 µM [9, 14]: 110%; remaining activity at 100 µM [10, 14]: 65%; remaining activity at 100 µM [11, 14]: 66%; remaining activity at 100 µM [12, 14]: 87%
3 | CC(=O)Nc1nc2cc(C)ccc2s1 [Compound 03-76] | 69 | 78 | 93 | 79 | 85 | 84 | 120 | 72 | 110 | 101 | 73 | 65 | 73 | 
4 | O=C(Nc1nc2ccc(O)cc2s1)c1cccnc1 [Compound 08-44] | 55 | 81 | 77 | 72 | 17 | 49 | 82 | 71 | 67 | 81 | 16 | 51 | 67 | 
